This is an account of results in patent US8263757B2, “Promiscuous HER-2/Neu CD4 T cell epitopes” (Dendreon Corporation, priority 2006, dated 2012).

This test concerns T cell clone HER500.23c21. As to the kind of experiment: HLA-DR promiscuity: HERp270-284 presented by EBV-LcL lines homozygous for HLA-DRB1* alleles to HER500.23c21 (IFNγ ELISA). The format is cell-based, human. As to the method:
FIG. 4. HERp270-284 is a promiscuous MHC Class II HER-2/Neu epitope. (A) EBV-LcL lines homozygous for various HLA-DR alleles were tested for their ability to present HERp270-284 to clone HER500.23c21. Antigen-specific IFNγ production by HER500.23c21 was above the upper detection limit of the IFNγ ELISA (4000 pg/mL) with all EBV-LcL lines. […] The assay was set up in 96 well round bottom plates in cRPMI+10% FBS with 2×10^5 EBV-LcL/well and 1×10^5 HER500.23c21 cells/well. Peptides were used at a final concentration of 1 μg/mL. The assay was incubated for 48 hours at 37° C. with 5% CO2. Supernatants were harvested, frozen at −20° C. and then analyzed for IFNγ by ELISA. Results are shown for one representative experiment. (B) HERp270-284 was titrated with each EBV LcL line to determine the sensitivity of HER500.23c21 to different alleles. The assay was set up as in (A) except HERp270-284 concentrations are: 10 ng/mL, 33 ng/mL, 66 ng/mL, 100 ng/mL and 250 ng/mL. […] Results are shown for one representative experiment.
Cytokine Production. To determine cytokine production in the antigen specific stimulation assays, after 48 hours, 200 μL of supernatant was pulled from cultures and tested for both IL-2 and IFNγ production. IL-2 production was measured using the IL-2 dependent line HT-2 (ATCC). HT-2 cells were grown in IMDM with 10% FBS and 100 uM NEAA, 1 mM Sodium Pyruvate, 2 mM L-glutamine, […], 50 U/mL Streptomycin, 20 mM HEPES and 20 uM 2-Mercaptoethanol (cIMDM+10% FBS) and fed twice a week with 20 ng/mL rIL-2. For the assay, 4 days after HT-2 cells were split, cells were washed with IMDM+10% FBS to remove all rIL-2, and cells were added to 96 well round bottom plates at 1×10^4 cells/well in cIMDM+10% FBS. Supernatants from antigen specific stimulation were added to wells and plates were incubated 24-30 hours at 37° C. The following day 1 μCi of ^3[H] TdR was added for the final 6 hours of the assay and plates were harvested to glass fiber filter mats and DNA incorporation of the radioisotope, or proliferative response, was determined by counts per minute using a liquid scintillation counter (PerkinElmer Life and Analytical Sciences, Inc. Boston, Mass.). IFNγ production was measured using anti-human IFNγ antibody pairs for ELISA (BD Pharmingen, San Diego, Calif.). Briefly, Immulon 4 plates (Thermo Labsystems/VWR, Brisbane, Calif.) were coated overnight with purified anti-human IFNγ antibody (NIB42) at 3 μg/mL. The next day coating antibody was discarded and 4% Bovine Serum Albumin (BSA) (Sigma, St. Louis, Mo.) in PBS (Invitrogen) was added to wells and plates were incubated for 2 hours at 37° C. Plates were washed with PBS+0.05% Tween 20 and 100 μL of supernatant samples from the antigen specific stimulation was added to wells and incubated at room temperature for 1.25-2 hours. Plates were washed and biotinylated anti-human IFNγ antibody (4S.B3) was diluted in 1% BSA in PBS (1 μg/mL) and added to plates for 1 hour at room temperature. After washing plates, Strep-Avidin HRP (BD Pharmingen) was diluted 1:1000 in PBST and added to wells for 30 minutes at room temperature. Finally, plates were washed and Sigma® Fast OPD was added for 15 minutes in the dark. 2M HCl was added to stop the reaction and plates were read for absorbance at 492 nm on a spectrophotometer.
HLA-DR Restriction and Promiscuity. To determine HLA-DR restriction of the T cell epitope HERp270-284, anti-HLA-DR mAb L243, HLA-DQ mAb 1a3 or HLA-DP mAb B7/21 (20-1.25 μg/mL) were cultured with T cell clone HER.23c21, peptide HERp270-284 and autologous EBV-LcL in cRPMI+10% FBS media. Supernatants were harvested after 48 hours and tested for IL-2 and IFNγ production. HERp270-284 was also tested for HLA-DR promiscuity using EBV-LcL lines purchased from the European Collection of Cell Cultures originating from the 12th International Histocompatibility Workshop (IHW) held in Strasbourg, France. […]

Take “ALVTYNTDTFESMPN (HER-2/Neu peptide 270-284, HER500 peptide #63, HERp270-284, HER-2/Neu epitope 270-284, residues 3-17 of SEQ ID NO1) [Peptide 63]”: the “T cell response induced, regardless of the EBV-LCL line used” value (1 ug/ml peptide) is “maximal T cell response”. For the same sequence, the “IFNγ production by HER500.23c21 (ELISA), peptide titration” value (all HERp270-284 concentrations above 250 ng/mL, each EBV LcL line) is greater than 4000 pg/mL. For the same sequence, the “lowest peptide concentration able to stimulate Her500.23c21” value (allele DRB1*0401) worked out at 10 ng/mL. In addition, where the note is “allele DRB1*1103”, the “peptide concentration below which allele was unable to stimulate Her500.23c21” value is no less than 250 ng/mL. Besides, for the setting “panel of 25 EBV LcL lines homozygous for different HLA-DRB1* alleles, 13 DR serological families”, the “number of HLA-DRB1* alleles for which the epitope is promiscuous (presented to HER500.23c21)” value is given as “at least 25”. Further, the “Antigen-specific IFNγ production by HER500.23c21 (ELISA)” value (peptide 1 μg/mL, all EBV-LcL lines, 48 hours, upper detection limit 4000 pg/mL) was greater than 4000 pg/mL.
